pIC50: −log10 of the molar value. Activity calls are given as the source filed them. The calls are words filed in the database; no cut-off is given here.
How the values were obtained:
[1] = Agonist activity at LXR; type: functional
[2] = Inhibition of Saccharomyces sp. alpha-glucosidase
[3] = target: T1, Oxysterols receptor LXR-alpha (Homo sapiens, UniProt Q13133); assay: Antagonist activity at human recombinant LXRalpha expressed in HEK293 cells by luciferase reporter gene assay; type: functional, cell-based
T1 sequence (Q13133 whole entry): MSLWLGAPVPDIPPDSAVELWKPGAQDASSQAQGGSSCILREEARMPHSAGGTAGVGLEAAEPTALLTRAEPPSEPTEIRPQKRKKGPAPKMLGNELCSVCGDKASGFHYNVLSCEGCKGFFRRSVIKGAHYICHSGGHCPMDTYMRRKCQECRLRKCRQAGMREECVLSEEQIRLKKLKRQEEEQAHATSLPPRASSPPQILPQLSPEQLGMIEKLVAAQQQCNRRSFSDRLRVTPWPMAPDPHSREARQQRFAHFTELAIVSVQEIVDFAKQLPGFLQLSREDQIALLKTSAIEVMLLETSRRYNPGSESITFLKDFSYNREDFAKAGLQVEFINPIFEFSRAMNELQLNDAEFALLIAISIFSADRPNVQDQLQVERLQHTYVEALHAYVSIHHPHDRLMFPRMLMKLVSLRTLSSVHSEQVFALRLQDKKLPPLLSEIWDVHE

[4] = target: T2, Oxysterols receptor LXR-beta (Homo sapiens, UniProt P55055); assay: Antagonist activity at human recombinant LXRbeta expressed in HEK293 cells by luciferase reporter gene assay; type: functional, cell-based
T2 sequence (P55055 whole entry): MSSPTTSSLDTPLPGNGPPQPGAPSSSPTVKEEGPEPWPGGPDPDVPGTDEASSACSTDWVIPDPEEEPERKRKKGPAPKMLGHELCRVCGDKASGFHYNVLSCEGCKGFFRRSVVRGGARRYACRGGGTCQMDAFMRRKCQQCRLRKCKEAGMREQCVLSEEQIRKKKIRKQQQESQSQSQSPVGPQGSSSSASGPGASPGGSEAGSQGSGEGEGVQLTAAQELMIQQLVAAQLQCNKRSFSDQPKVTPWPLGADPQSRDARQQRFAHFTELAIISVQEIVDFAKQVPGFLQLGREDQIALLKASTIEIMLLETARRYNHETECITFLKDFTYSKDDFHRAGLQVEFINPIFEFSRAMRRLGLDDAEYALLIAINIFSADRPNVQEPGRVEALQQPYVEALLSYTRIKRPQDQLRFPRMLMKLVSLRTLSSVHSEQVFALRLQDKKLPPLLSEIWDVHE

Row | Structure (SMILES) | Activity [1] | pIC50 [2] | pIC50 [3] | pIC50 [4]
1 | CC(C)CC[C@@H](O)[C@@H](C)[C@H]1CC[C@H]2[C@@H]3CC=C4C[C@@H](O)CC[C@]4(C)[C@H]3CC[C@]12C [22(R)-HYDROXYCHOLESTEROL] | inactive | 4.00 | – | –
2 | COc1ccc2cc1Oc1ccc(cc1)CCc1ccccc1-c1ccc(cc1)CC2 | inactive | < 4.00 | 5.12 | 4.39
3 | Oc1ccc2c(c1)CCc1ccc(cc1)Oc1cccc(c1)CCc1ccc-2c(O)c1 | inactive | 5.29 | 5.08 | 5.00
4 | COc1ccc2c(c1)CCc1ccc(cc1)Oc1cccc(c1)CCc1ccc-2c(OC)c1 | inactive | < 4.52 | 4.60 | 4.34
5 | COc1cc2ccc1-c1ccccc1CCc1ccc(cc1)Oc1cccc(c1)CC2 | inactive | 4.17 | 5.60 | 4.96
6 | CCCCCCc1ccccc1N1C(=O)c2ccccc2C1=O | inactive | 4.61 | – | –
7 | c1cc2cc(c1)Oc1ccc(cc1)CCc1ccccc1-c1ccc(cc1)CC2 [DEOXYRICCARDIN C] | inactive | 4.74 | 5.15 | 4.11
8 | O=C(O)Cc1cccc(OCCCN(Cc2cccc(C(F)(F)F)c2Cl)CC(c2ccccc2)c2ccccc2)c1 | inactive | 5.32 | – | –
9 | OC[C@H]1NC[C@H](O)[C@@H](O)[C@@H]1O [DUVOGLUSTAT] | inactive | 3.60 | < 4.00 | < 4.00
10 | Oc1ccc2cc1Oc1ccc(cc1)CCc1ccccc1-c1ccc(cc1O)CC2 | inactive | 5.07 | 5.18 | 4.89
11 | O=S(=O)(c1ccccc1)N(CC(F)(F)F)c1ccc(C(O)(C(F)(F)F)C(F)(F)F)cc1 [T091317] | inactive | 4.00 | – | –
12 | Oc1cc2ccc1-c1ccccc1CCc1ccc(cc1)Oc1cccc(c1)CC2 | inactive | 4.72 | 5.49 | 5.14
13 | COc1ccc2c(c1)CCc1ccc(cc1)Oc1cc(ccc1OC)CCc1ccc-2cc1 | inactive | 4.40 | 5.44 | 4.59
14 | COc1ccc2c(c1)CCc1ccc(cc1)Oc1cc(ccc1OC)CCc1ccc-2c(OC)c1 | inactive | 4.31 | 5.70 | 4.85
15 | Oc1ccc2c(c1)CCc1ccc(cc1)Oc1cc(ccc1O)CCc1ccc-2cc1 | inactive | 5.31 | 5.36 | 5.12
16 | O=C1c2ccccc2C(=O)N1c1ccccc1CCc1ccccc1 | inactive | 4.79 | – | –
17 | O=c1c(-c2ccc(O)cc2)coc2cc(O)cc(O)c12 [GENISTEIN] | inactive | 4.00 | 4.51 | 4.66
18 | COc1ccc2cc1Oc1ccc(cc1)CCc1ccccc1-c1ccc(cc1OC)CC2 | inactive | 4.38 | 5.66 | 4.92
19 | Oc1ccc2cc1Oc1ccc(cc1)CCc1ccccc1-c1ccc(cc1)CC2 | inactive | 4.82 | 5.24 | 4.85
20 | CC(C)c1cccc(C(C)C)c1N1C(=O)c2ccccc2C1=S | inactive | 5.10 | 5.51 | 4.74
21 | Oc1ccc2c(c1)CCc1ccc(cc1)Oc1cc(ccc1O)CCc1ccc-2c(O)c1 [RICCARDI C] | inactive | 5.00 | 5.31 | 5.18

Reference: ChEMBL document CHEMBL1144755, “Co-existence of alpha-glucosidase-inhibitory and liver X receptor-regulatory activities and their separation by structural development” (Bioorg Med Chem, 2008)
